Assay results from patent US10556936B2, “Immunogenic proteins and fragments thereof from allergenic mites” (ALK-ABELLÓ A/S, priority 2016, dated 2020).

System: HDM-specific T cells expanded from PBMCs of HDM-allergic individuals
Assay: T cell reactivity of peptides: IFN/IL-5 ELISPOT on in vitro expanded HDM-specific T cells
Type: cell-based, human
Conditions: for SFC/donor: individual peptides 10 μg/mL; for % responder: percentage of donors that produced a response against the peptide, 10 μg/mL
Procedure: Each sequence of an “L” cluster was aligned separately using the MEGA software tool with ClustalW. Fifteen-mer peptides overlapping by 10 amino acids were generated and the last 15-mer peptide was added when the sequence length was not divisible by 5, 14,783 unique peptides remained.
HLA class II binding predictions optimized for global coverage were performed for the seven class II alleles (HLA-DRB1*03:01, HLA-DRB1*07:01, HLA-DRB1*15:01, HLA-DRB3*01:01, HLA-DRB3*02:02, HLA-DRB4*01:01 and HLA-DRB5*01:01) using the standalone version of the IEDB class II binding prediction tool. The median consensus percentile rank was estimated from the consensus percentile ranks for the seven alleles. Further, peptides with more than ten overlapping amino acids, which appeared because several occurrences of some sequence regions were repeated multiple times in the same sequence, were eliminated (e.g. “[…]” was repeated seven times in one sequence.) Variant peptides were also removed, retaining the better peptide based on the median consensus percentile rank and conservation among the sequences within its respective cluster. Peptides with median consensus percentile rank ≤10.0 and conserved in ≥35% of sequences in the same cluster were finally selected, also including additional selected peptides chosen to maximize DRB1 allele coverage, for a grand total of 2,589 peptides.
Peptides were purchased from Mimotopes (Clayton, Victoria, Australia) or A and A (San Diego, Calif.) as crude material on a small (1-mg) scale. Individual peptides were resuspended in DMSO at a final concentration of 40 mg/mL. Peptide “megapools” of 30-65 peptides/pool were generated. Following lyophilization, each pool was reconstituted in DMSO so that each peptide was present at a concentration of 4 mg/mL. To facilitate deconvolution of positive megapools, each megapool was further broken down in 2-6 “mesopools” (259 mesopools in total), each containing 8-14 peptides. Each mesopool was then deconvoluted to identify individual positive peptides. To avoid dimerization and polymerization of peptides by intra- and intermolecular disulfide bond formation between cysteine residues, this amino acid were in some instances substituted by a serine residue in the peptides. Such peptides are herein marked with an asterisk (*).
PBMCs from European HDM-allergic individuals were recruited in the Copenhagen region (defined by clinical history of allergy to house dust mite and specific IgE to group 1 and group 2 major allergens from Der p and/or Der f and with measured specific IgE (CAP) >0.7 kU/L towards Der p/f 1 or Der p/f 2. In addition, PBMCs from 10 US HDM-allergic individuals were recruited in San Diego (defined by Der p extract IgE titers greater than 0.35 kUA/L). PBMCs were isolated from whole blood by density gradient centrifugation according to manufacturers' instructions (Ficoll-Hypaque, Amersham Biosciences, Uppsala, Sweden). Der p- and Der f-specific extract IgE titers were determined using the ImmunoCAP system (Thermo Fisher, Uppsala, Sweden). In a separate series of experiments, pooled plasma from 10 European and 10 American HDM atopic individuals from the San Diego region, respectively, was utilized to run 2D immunoblots to elucidate IgE and IgG reactivity towards the proteins, which had at least one peptide with positive T cell response.
HDM-specific T cells were expanded in vitro. Briefly, PBMCs from HDM-allergic individuals were stimulated with HDM extract (5 μg/mL) and expanded over 14-17 days with IL-2 (added every 3 days). Cells were harvested on day 14, restimulated with HDM extract (5 μg/mL), individual peptides (10 μg/mL) or peptide pools (5 μg/mL) and screened for […]/IL-5-production by ELISPOT. Criteria for positivity were 100 or 20 spot forming cells (SFCs) per 10^6 PBMCs for peptide pools or single peptides, respectively, p<0.05, and a stimulation index >2.

Substance | SFC/donor | % responder
HKPIILGTLRNGATN (Immunogenic fragment) [Peptide 182, fragment of A0023 Der f] | 175 SFC/donor | 10%
103 (QLHYNLHNLYSLSMA; Immunogenic fragment) [compound 103] | 69 SFC/donor | 5%
114 (YQLGAFYSFARNHND; Immunogenic fragment) [compound 114] | 35 SFC/donor | 15%
YPRKYAFALPKDSQY (Immunogenic fragment) [Peptide 187, fragment of A0023 Der f] | 25 SFC/donor | 10%
106 (AALTKLNKRPFIISR; Immunogenic fragment) [compound 106] | 14 SFC/donor | 10%
86 (RLYSVELDGSHLIVR; Immunogenic fragment) [compound 86] | 3 SFC/donor | 5%
48 (EQYISGVILFDETVY; Immunogenic fragment) [compound 48] | 326 SFC/donor | 20%
84 (IHQLNDQVLRLKFID; Immunogenic fragment) [compound 84] | 3 SFC/donor | 5%
49 (KGIIPGIKVDTGVVT; Immunogenic fragment) [compound 49] | 83 SFC/donor | 10%
KDSQYLQHFNNAIKQ (Immunogenic fragment) [Peptide 188, fragment of A0023 Der f] | 24 SFC/donor | 10%
127 (SQHLGYQTNQSIIIL; Immunogenic fragment) [compound 127] | 7 SFC/donor | 10%
107 (NEALKTTLNKRPFII; Immunogenic fragment) [compound 107] | 9 SFC/donor | 5%
129 (INILGVPKLPTSFKL; Immunogenic fragment) [compound 129] | 24 SFC/donor | 20%
70 (HSKRYLLRLEHFYQR; Immunogenic fragment) [compound 70] | 5 SFC/donor | 5%
SLRGVTIRNAPFLEE (Immunogenic fragment) [Peptide 178, fragment of A0023 Der f] | 42 SFC/donor | 10%
96 (LPDFIRNVLHKNGQK; Immunogenic fragment) [compound 96] | 5 SFC/donor | 10%
111 (SSMRWTIPSILNFNM; Immunogenic fragment) [compound 111] | 19 SFC/donor | 10%
121 (DIETQFMWGDSMLIA; Immunogenic fragment) [compound 121] | 8 SFC/donor | 5%
69 (EPIISFTSIESNKQA; Immunogenic fragment) [compound 69] | 112 SFC/donor | 5%
83 (DLSMTKLKRVRPSGF; Immunogenic fragment) [compound 83] | 4 SFC/donor | 5%
